Ends that are not written are not given here.
Key:
prostate and bladder = system: prostate and bladder
From the text: In CPPS, prostatic inflammation is suspected to result in referred visceral pain and urodynamic changes. Therefore, we established a model of prostatitis that would allow the study of histological, molecular and physiological changes in the bladder and the prostate, in an effort to correlate it to visceral referred pain.

bladder and the prostate = test: Systemic substance P (SP) model of neurogenic inflammation in the bladder and prostate; assay type: in vivo, rat
From the text: We sought to determine if neurogenic inflammation alone (without producing damage or insult to the bladder epithelia, as was the case in the acid and LPS cystitis models) was also able to alter MIF levels in the bladder. In addition, we examined the prostate for signs of inflammation. Systemic injections of SP elicited plasma extravasation and edema (neurogenic inflammation) in the bladder and the prostate. We examined MIF and cox-2 to compare the results with our previous models of bladder injury (acid and LPS). In addition, we examined nerve growth factor (NGF) and the proto-oncogene c-fos.

bladder = test: Substance P induced changes in CD74, CD44, p-ERK1/2 and MIF in the rat bladder; assay type: in vivo; settings: subcutaneous SP 40 μg/kg; one hour
Description: The materials and methods are identical to Meyer-Siegler et al. (Journal of Urology 173: February, 2005), the disclosure of which is incorporated herein by reference. In anesthetized rats, the bladder was isolated by cutting the ureters and urine was replaced by saline as intraluminal fluid ([…]). One hour after subcutaneous SP (40 μg/kg) or saline administration, the ILF and bladder were collected. Bladder tissue was analyzed for CD74 and CD44 by immunohistochemistry. Western blot analysis determined the relative amounts of bladder tissue MIF, CD74, CD44, and p-ERK1/2. ILF immunoprecipitation followed by Western blot analysis was performed to identify an association of MIF with CD74 and/or CD44

[1] = system: bladder, lumbosacral spinal cord, DRG and MPG; test: Intravesical bacterial endotoxin (LPS) model of bladder inflammation; assay type: in vivo, rat
From the text: Intravesical instillation of a bacterial endotoxin (lipopolysaccharide from E. Coli) has been documented to produce histological signs of bladder inflammation (Stein et al., J. Urol. 155: 1133-1138, 1996; Saban et al., Am. J Pathol. 160: 2095-2110, 2002; Wheeler et al., Eur. J Pharmacol. 417: 239-248, 2001). […] Therefore, we examined the effects of intravesical LPS on the levels of MIF and cox-2 on the bladder, lumbosacral spinal cord, DRG and MPG.

C=O [formalin]
MIF protein level in the bladder (prostate and bladder; animals receiving formalin in the prostate): significantly reduced
persistence of bladder hyperreflexia (prostate and bladder; chemical irritation of the prostate): at least 1 hour
bladder intercontraction interval (prostate and bladder; formalin injected into the prostate, maximal in first ten minutes, persisted 60 min): significant decrease

Substance P (RPKPQQFFGLM-NH2; ends and bridges not checked; UniProt P20366 58-68, looked up) [SP, tachykinin; systemic injection used as model of neurogenic inflammation]
cox-2 and c-fos levels in the bladder and the prostate (bladder and the prostate; SP group): significantly elevated
MIF levels in the urine and serum (bladder and the prostate; SP treated animals with isolated bladders): significantly increased
content of MIF in bladders and prostates (bladder and the prostate; SP treated compared to saline treated): marked decrease
edema in the lamina propria of the bladder (Mean) (bladder and the prostate; SP treated rats compared to saline treated rats, p<0.05): 2.69±0.1
NGF levels in the prostate and the urine (bladder and the prostate; SP treated rats, not elevated in the bladder): significantly elevated
CD74 and CD44 bladder immunostaining (bladder): increased
MIF release from the bladder (bladder): significant MIF release
total bladder CD74 protein and mRNA, intracellular domain CD44, p-ERK1/2 and soluble CD44 in the ILF (bladder): increased

lipopolysaccharide from E. Coli [LPS]
histological changes of the bladder ([1]; intravesical LPS): marked histological changes indicative of cystitis
MIF protein and mRNA in all the tissues, including the bladder ([1]; intravesical LPS treated rats): significant increases

From patent US7897349B2, “Macrophage migration inhibitory factor (MIF) as marker for urological inflammatory disease” (The United States of America as represented by the …, priority 2003, dated 2011)
